{"source": "patent US20060058384A1", "about": "“Treatment of IGA nephropathy with omega-3 fatty acids” (PRONOVA BIOCARE, A.S., priority 2004, published 2006)", "system": "patients with IgA nephropathy", "experiment": "Placebo-controlled clinical trial in IgA nephropathy: GFRest, UP/C and Composite Response/Outcome Scores", "assay_type": "in vivo, human", "source_text": "In a multicenter, placebo-controlled, double blind clinical trial, we evaluated the efficacy of a 24-month stable daily dose (4 grams per day) of a highly purified preparation of O3 (especially icosapent & doconexent).\nWe performed secondary analyses based on clinical response scores derived from changes in the level of proteinuria (defined by urine protein to creatinine ratios in first morning urine specimens) and GFRest. Composite Response Score, which represented changes in proteinuria and GFR scores were also calculated.\nThis was a placebo-controlled, prospective clinical trial. After fulfilling all entry criteria, patients were assigned to one of three treatment arms, as described in our paper discussing the primary analysis of this study.\nRandomization of patients was stratified by hypertensive status and blocked randomization was used within each stratum.\nEstimation of GFR and level of proteinuria. The glomerular filtration rate (GFR) was estimated at 6 monthly intervals in each patient using standard age-appropriate formulas. […] Serum creatinine measurements were measured by HPLC. […]\nStatistical analysis: After it was noted that there was wide variation in the plasma phospholipid fatty acid profiles in patients receiving icosapent/doconexent (FIG. 1), a series of secondary analyses was conducted to determine the cause for this variability and to evaluate if the fatty acid profiles affected patient outcome. Clinical response scores were determined for each patient based on changes in the estimated GFR (−5 to +5) and urine protein/creatinine ratios (−5 to +5) at each 6 month visit up to 36 months. Composite response scores (−10 to +10) at each time interval were then determined based on the patients' combined GFR and UP/C Response Scores—with equal weight given to each (Table 1). Clinical outcome scores were then calculated based on the mean of the Composite Response Scores at 18 and 24 months. The dosage of the study drugs given to each patient was calculated as g/kg body weight and g/m^2 BSA. […]", "note": "Entries after “also recorded” stand apart in the source; their conditions may differ.", "data": [{"smiles": "C[C@]12C=CC(=O)C=C1CC[C@@H]1[C@@H]2C(=O)C[C@@]2(C)[C@H]1CC[C@]2(O)C(=O)CO", "note": "[prednisone]", "values": [{"measurement": "Composite Response Scores, treatment arm as a whole", "setting": "6-month intervals, 0 to 36 months, FIG. 2", "value": "significantly better; also recorded: better response"}, {"measurement": "Primary analysis: decrease of GFR to less than 60% of baseline", "setting": "24-month treatment, O3 4 grams per day, prednisone alternate-day", "value": "did not show a statistically significant benefit"}, {"measurement": "Secondary analysis: efficacy by clinical response scores (proteinuria and GFRest)", "setting": "secondary analyses", "value": "effective"}]}]}
